The text below walks through data of US9095600B2, “Prophylactic and/or therapeutic agent for cardiac infarction” (OSAKA UNIVERSITY, priority 2007, dated 2015).

Data set [1] in a line: Hemodynamic test (blood pressure and heart rate during intravenous injection). The data set is classed as in vivo, Male SD rats. The note with it: rat, i.v. The protocol:
Male SD rats (nine weeks old, body weight: 270 g to 320 g, supplied by Japan SLC, Inc.) were employed. Each of the rats was anesthetized with pentobarbital sodium (30 mg/kg, intraperitoneal injection) and then fixed in the dorsal position. A tube was orally inserted into the trachea, and artificial ventilation was carried out by means of a ventilator for small animals. A catheter (INTRAMEDIC Polyethylene Tubing PE50, CLAY ADAMS) was inserted into the femoral artery and the femoral vein, and systolic blood pressure, diastolic blood pressure, and mean blood pressure were measured in the femoral artery. Heart rate was measured by means of an electrocardiograph. A drug sample was injected through the catheter indwelled in the femoral vein by means of a syringe pump (Model PHD 4400, HARVARD). Specifically, after stabilization of hemodynamics, empty liposomes (n=8), adenosine only (n=8), and adenosine-retaining liposomes (n=8) were injected transvenously, respectively.
In an empty liposome group, injection was carried out at 0.05 mL/minute for 10 minutes (one minute, five minutes, and 10 minutes after initiation of injection, blood pressure and heart rate were evaluated), and, for five minutes after completion of injection, blood pressure and heart rate were evaluated. Thereafter, evaluation was carried out in a manner similar to that described above at an injection rate of 0.1 mL/minute, 0.2 mL/minute, or 0.4 mL/minute. In an adenosine-only group or an adenosine-retaining liposome group, injection was initiated at 0.05 mL/minute (225 μg/kg/minute as reduced to adenosine), and cumulative administration was carried out through the same protocol as in the case of the empty liposome group.

The conditions of data set [2]: cited from earlier work.
For data set [3], the system named is ischemia-reperfusion model rat. Briefly: Ischemia-reperfusion test (rat), myocardial infarct size. The following applies: 900 μg/kg/minute i.v. for 10 minutes, injection before ischemia, 72 hours after reperfusion. The data set is classed as in vivo, Male SD rats. As to the method: Similar to the case of the hemodynamic test, male SD rats were employed. Each of the rats was anesthetized and artificially ventilated, and then thoracotomy was carried out at the thoracic sidewall. The left anterior descending coronary artery (LAD) was ligated by means of a suturing needle with suture for 30 minutes, and then blood flow was restored, to thereby prepare an ischemia-reperfusion model. A drug sample was injected through a catheter (INTRAMEDIC Polyethylene Tubing PE50, CLAY ADAMS) indwelled in the femoral vein.
In this test, an adenosine-retaining liposome group were divided into two groups: a group received adenosine-retaining liposomes before ischemia (injected for 10-minute before ischemia), and a group received adenosine-retaining liposomes before reperfusion (injected for 10-minute initiated 5 minutes before reperfusion). In the other groups, injection was carried out before ischemia (injected for 10-minute before ischemia). […]
Each of the rats was anesthetized 72 hours after reperfusion, and then thoracotomy was carried out again. […] After staining, the specimens were photographed, and an ischemic risk area (non-Evans blue-stained area) and an infarct area (non-TTC-stained area) were determined by means of Win ROOF Version 5.5 (product of Mitani Corporation). Infarct size was calculated by dividing the infarct area by the ischemic risk area.

[4] abbreviates: ten minutes after initiation of adenosine injection at 225 μg/kg/minute.
The mark [5] stands for this setting: ten minutes after initiation of adenosine injection at 450 μg/kg/minute.
The mark [6] stands for this setting: ten minutes after initiation of adenosine injection at 900 μg/kg/minute.
The mark [7] stands for this setting: ten minutes after initiation of adenosine injection at 1,800 μg/kg/minute.

On to `Nc1ncnc2c1ncn2[C@@H]1O[C@H](CO)[C@@H](O)[C@H]1O` [adenosine, Adenosine], for which the heart rate was 357±25 bpm in data set [1] (setting [4]), 324±25 bpm in data set [1] (setting [5]), 296±12 bpm in data set [1] (setting [6]) and 236±17 bpm in data set [1] (setting [7]). For the same molecule, the mean blood pressure in data set [1] (setting [4]) was 101±12 mmHg; in data set [1] (setting [5]), 93±14 mmHg; in data set [1] (setting [6]), 84±11 mmHg; in data set [1] (setting [7]), 75±11 mmHg. Further, the “half life in blood” value in data set [2] was less than 10 s. In data set [3], the “myocardial infarct size (infarct area / ischemic risk area)” value was 25.2±1.9%.
